Laboratory results reported in patent US9708336B2, “Metallo-beta-lactamase inhibitors” (priority 2014, dated 2017).
Where two headings read alike, the source gives them in different places.

What was measured:
IMP-1 = IMP-1 (Serratia marcescens, UniProt P52699); assay: biochemical; assay type: biochemical; conditions: fluorescence assay with CCF2-FA substrate; read-out: IMP-1 IC50
VIM-1 = VIM-1 (Pseudomonas aeruginosa (strain ATCC 15692 / DSM 22644 / CIP 104116 / JCM 14847 / LMG 12228 / 1C / PRS 101 / PAO1), UniProt A0A0F7KYQ8); assay: Enzyme activity: determination of IC50, fluorescence assay with CCF2-FA substrate (VIM-1); assay type: biochemical
[1] = system: Serratia marcescens expressing IMP-1 (CL5741); assay: Antibiotic potentiation activity: synergistic concentration (MITC95) with imipenem, OD600 growth; assay type: cell-based; conditions: concentration giving 95% inhibition of bacterial growth
Protocol: (§1) Antibiotic Potentiation Activity: Determination of Synergistic Concentration
(§2) The bacterial strains tested included the clinical strains Escherichia coli expressing NDM-1 (CLB30005, CLB30016), Serratia marcescens expressing IMP-1 (CL5741), and Klebsiella pneumoniae expressing VIM-1 (IHMA599644) Inhibitor activity was measured in the presence and absence of imipenem in a 384-well microplate.
(§3) The clinical strains CLB30016, CL5741 and IHMA599644 were grown on trypticase soy agar containing 5% sheep's blood. The clinical strain CLB30005 was grown on Mueller Hinton broth agar containing 8 ug/ml imipenem. The bacteria on agar plates were incubated at 35° C. with humidity overnight. The following day, individual colonies from each clinical strain were picked and resuspended in 5 ml saline to attain an OD600 of 0.14, 0.11, 0.15 and 0.13, for CLB30005, CLB30016, CL5741 and IHMA599644, respectively. These were further diluted 1:100 into 1.1×CAMHB and used to inoculate the test wells as described below.
(§4) Imipenem in 10 mM 3-(N-morpholino)propanesulfonic acid (MOPS, pH 7) was stored in single use aliquots at −80° C. […] On the day of the assay, 4 μl of antibiotic was added to 45 ul of bacteria followed by 1 μl of test compound and mixed by pipetting and with an orbital shaker. The concentration of antibiotic used in the assay was 4 μg/ml, or optionally 1 μg/ml. Microplates were covered and incubated at 35° C. for 22 hours to 24 hours. At the end of the incubation, absorbance was determined using a spectrophotometer.

[2] = system: Escherichia coli expressing NDM-1 (CLB30016); assay: as above; assay type: cell-based; conditions: concentration giving 95% inhibition of bacterial growth
Protocol: as §1, §2, §3, §4

[3] = system: Klebsiella pneumoniae expressing VIM-1 (IHMA599644); assay: as above; assay type: cell-based; conditions: concentration giving 95% inhibition of bacterial growth
Protocol: as §1, §2, §3, §4

NDM-1 = NDM-1 (Klebsiella pneumoniae, UniProt C7C422); assay: biochemical; assay type: biochemical; conditions: fluorescence assay with CCF2-FA substrate; read-out: NDM-1 IC50
[4] = fluorescence assay with CCF2-FA substrate, read-out: VIM-1 IC50

IMP-1, sequence (P52699 whole entry, looked up): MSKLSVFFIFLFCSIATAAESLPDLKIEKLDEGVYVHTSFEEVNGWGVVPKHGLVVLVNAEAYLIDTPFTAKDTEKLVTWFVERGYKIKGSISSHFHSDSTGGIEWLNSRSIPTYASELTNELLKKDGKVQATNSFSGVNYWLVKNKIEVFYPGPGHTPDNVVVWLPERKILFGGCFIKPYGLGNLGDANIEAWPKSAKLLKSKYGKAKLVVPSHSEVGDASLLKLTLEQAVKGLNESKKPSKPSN
NDM-1, sequence (C7C422 whole entry, looked up, species assumed): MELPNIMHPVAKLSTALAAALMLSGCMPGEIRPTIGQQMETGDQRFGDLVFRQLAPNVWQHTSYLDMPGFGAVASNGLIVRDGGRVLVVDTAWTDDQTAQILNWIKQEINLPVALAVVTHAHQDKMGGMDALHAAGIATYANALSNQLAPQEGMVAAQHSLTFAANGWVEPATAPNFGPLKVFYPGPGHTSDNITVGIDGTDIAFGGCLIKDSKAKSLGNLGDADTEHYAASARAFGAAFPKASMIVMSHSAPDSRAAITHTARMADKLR

Structure (SMILES)	IC50 (IMP-1) [nM]	IC50 (VIM-1; VIM-1 IC50, fluorescence assay with CCF2-FA substrate) [nM]	Serratia marcescens expressing IMP-1 (CL5741) MITC95 [1] [µM]	Escherichia coli expressing NDM-1 (CLB 30016) MITC95 [2] [µM]	Klebsiella pneumoniae expressing VIM-1 (IHMA 599644) MITC95 [3] [µM]	IC50 (NDM-1) [nM]	IC50 (VIM-1; [4]) [nM]
NS(=O)(=O)c1cccc(-c2cc(F)cc(F)c2)c1-c1nnn[nH]1 [Example 129, 3′,5′-difluoro-2-(1H-tetrazol-5-yl)-[1,1′-biphenyl]-3-sulfonamide]	176	37.9	9.375	0.7813	12.5	3.71	
Nc1[nH]nc2cc(-c3cccc(S(N)(=O)=O)c3-c3nnn[nH]3)ccc12 [Example 131, 3-(3-amino-2H-indazol-6-yl)-2-(1H-tetrazol-5-yl)benzenesulfonamide]	187		3.125	0.7813	3.125	0.7	16.9
Nc1[nH]nc2ccc(-c3cccc(S(N)(=O)=O)c3-c3nnn[nH]3)cc12 [Example 132, 3-(3-amino-2H-indazol-5-yl)-2-(1H-tetrazol-5-yl)benzenesulfonamide]	755		12.5	1.172	6.25	2.73	26.7
Nc1cc(-c2cccc(S(N)(=O)=O)c2-c2nnn[nH]2)cc(N)n1 [Example 133, 3-(2,6-diaminopyridin-4-yl)-2-(1H-tetrazol-5-yl)benzenesulfonamide]	4920		37.5	0.3906	6.25	21.6	108
Nc1nc2c(-c3cccc(S(N)(=O)=O)c3-c3nnn[nH]3)cccc2s1 [Example 134, 3-(2-aminobenzo[d]thiazol-4-yl)-2-(1H-tetrazol-5-yl)benzenesulfonamide]	22.6		0.7813	0.5859	3.125	0.28	11.1
COc1cc(-c2cccc(S(N)(=O)=O)c2-c2nnn[nH]2)ccn1 [Example 135, 3-(2-methoxypyridin-4-yl)-2-(1H-tetrazol-5-yl)benzenesulfonamide]	62.6		1.172	1.172	18.75	4.47	61.9
N#Cc1cncc(-c2cccc(S(N)(=O)=O)c2-c2nnn[nH]2)c1 [Example 136, 3-(5-cyanopyridin-3-yl)-2-(1H-tetrazol-5-yl)benzenesulfonamide]	1690		25	1.563	37.5	24.8	150
Nc1cncc(-c2cccc(S(N)(=O)=O)c2-c2nnn[nH]2)n1 [Example 137, 3-(6-aminopyrazin-2-yl)-2-(1H-tetrazol-5-yl)benzenesulfonamide]	2530		25	1.172	25	30.7	561
COc1ccc2cc(-c3cccc(S(N)(=O)=O)c3-c3nnn[nH]3)cnc2n1 [Example 138, 3-(7-methoxy-1,8-naphthyridin-3-yl)-2-(1H-tetrazol-5-yl)benzenesulfonamide]	354		37.5	1.563	>200	6.78	166
Cc1cccn2c(-c3cccc(S(N)(=O)=O)c3-c3nnn[nH]3)cnc12 [Example 139, 3-(8-methylimidazo[1,2-a]pyridin-3-yl)-2-(1H-tetrazol-5-yl)benzenesulfonamide]	98.4		6.25	0.1953	12.5	0.637	5.78
NS(=O)(=O)c1cccc(C2=CCOCC2)c1-c1nnn[nH]1 [Example 140, 3-(3,6-dihydro-2H-pyran-4-yl)-2-(1H-tetrazol-5-yl)benzenesulfonamide]	160		6.25	0.5859	50	7.68	388
NS(=O)(=O)c1cccc(COc2ccccc2)c1-c1nnn[nH]1 [Example 142, 3-(phenoxymethyl)-2-(1H-tetrazol-5-yl)benzenesulfonamide]	81		6.25	1.563	>200	8.2	419
NS(=O)(=O)c1cccc(CCc2ccccn2)c1-c1nnn[nH]1 [Example 144, 3-(2-pyridin-2-ylethyl)-2-(1H-tetrazol-5-yl)benzenesulfonamide]	4500		200	3.125	>200	121	1540
NS(=O)(=O)c1cccc(C2CCC2)c1-c1nnn[nH]1 [Example 149, 3-cyclobutyl-2-(1H-tetrazol-5-yl)benzenesulfonamide]	493		6.25	1.563	150	23.7	861
Cc1cccc(S(N)(=O)=O)c1-c1nnn[nH]1 [Example 150, 3-methyl-2-(1H-tetrazol-5-yl)benzenesulfonamide]	1940		6.25	0.7813	200	148	5650
NS(=O)(=O)c1cccc(C2CCCCC2)c1-c1nnn[nH]1 [Example 151, 3-cyclohexyl-2-(1H-tetrazol-5-yl)benzenesulfonamide]	31.8		1.563	1.172	37.5	1.25	31.5
N#Cc1cccc(Cc2cccc(S(N)(=O)=O)c2-c2nnn[nH]2)c1 [Example 152, 3-(3-cyanobenzyl)-2-(1H-tetrazol-5-yl)benzenesulfonamide]	252		12.5	4.688	200	14.2	91.4
